Laboratory results taken from patent publication US20070021419A1, “2-Aminophenyl-4-phenylpyrimidines as kinase inhibitors” (Cyclacel Limited, priority 2003, published 2007).

Tests used:
CDK1/cyclin B = CDK1/cyclin B (Homo sapiens, UniProt P06493); test: Kinase assay, radioactive phosphate incorporation, CDK1/cyclin B; assay type: biochemical; conditions: 100 μM ATP, 30° C.; read-out: Kinase inhibition IC50 CDK1/cyclin B
Experimental: (§1) The compounds from the examples above were investigated for their ability to inhibit the enzymatic activity of various protein kinases. This was achieved by measurement of incorporation of radioactive phosphate from ATP into appropriate polypeptide substrates. Recombinant protein kinases and kinase complexes were produced or obtained commercially. Assays were performed using 96-well plates and appropriate assay buffers (typically 25 mM β-glycerophosphate, 20 mM MOPS, 5 MM EGTA, 1 mM DTT, 1 mM Na3VO3, pH 7.4), into which were added 2-4 μg of active enzyme with appropriate substrates. The reactions were initiated by addition of Mg/ATP mix (15 mM MgCl2+100 μM ATP with 30-50 kBq per well of [γ-^32P]-ATP) and mixtures incubated as required at 30° C. Reactions were stopped on ice, followed by filtration through p81 filterplates or GF/C filterplates (Whatman Polyfiltronics, Kent, UK). After washing 3 times with 75 mM aq orthophosphoric acid, plates were dried, scintillant added and incorporated radioactivity measured in a scintillation counter (TopCount, Packard Instruments, Pangbourne, Berks, UK). Compounds for kinase assay were made up as 10 mM stocks in DMSO and diluted into 10% DMSO in assay buffer.

CDK2/cyclin A = CDK2/cyclin A (Homo sapiens, UniProt P24941); test: Kinase assay, radioactive phosphate incorporation, CDK2/cyclin A; assay type: biochemical; conditions: 100 μM ATP, 30° C.; read-out: Kinase inhibition IC50 CDK2/cyclin A
Experimental: as §1

CDK2/cyclin E = CDK2/cyclin E (Homo sapiens, UniProt P24941); test: Kinase assay, radioactive phosphate incorporation, CDK2/cyclin E; assay type: biochemical; conditions: 100 μM ATP, 30° C.; read-out: Kinase inhibition IC50 CDK2/cyclin E
Experimental: as §1

CDK4/cyclin D1 = CDK4/cyclin D1 (Homo sapiens, UniProt P11802); test: Kinase assay, radioactive phosphate incorporation, CDK4/cyclin D1; assay type: biochemical; conditions: 100 μM ATP, 30° C.; read-out: Kinase inhibition IC50 CDK4/cyclin D1
Experimental: as §1

GSK3β = GSK3β (Homo sapiens, UniProt P49841); test: Kinase assay, radioactive phosphate incorporation, GSK3β; assay type: biochemical; conditions: 100 μM ATP, 30° C.; read-out: Kinase inhibition IC50 GSK3β
Experimental: as §1

A549 = test: 72-h MTT cytotoxicity assay, A549; assay type: cell-based; conditions: Homo sapiens, read-out: 72-h MTT IC50 A549, A549 cell line
Experimental: (§2) The compounds from the examples above were subjected to a standard cellular proliferation assay using human tumour cell lines obtained from the ATCC (American Type Culture Collection, 10801 University Boulevard, Manessas, Va. 20110-2209, USA). Standard 72-h MTT (thiazolyl blue; 3-[4,5-dimethylthiazol-2-yl]-2,5-diphenyltetrazolium bromide) assays were performed. In short: cells were seeded into 96-well plates according to doubling time and incubated overnight at 37° C. Test compounds were made up in DMSO and a 1/3 dilution series prepared in 100 μL cell media, added to cells (in triplicates) and incubated for 72 ho at 37° C. MTT was made up as a stock of 5 mg/mL in cell media and filter-sterilised. Media was removed from cells followed by a wash with 200 μL PBS. MTT solution was then added at 20 μL per well and incubated in the dark at 37° C. for 4 h. MTT solution was removed and cells again washed with 200 μL PBS. MTT dye was solubilised with 200 μL per well of DMSO with agitation.

HT29 = test: 72-h MTT cytotoxicity assay, HT29; assay type: cell-based; conditions: Homo sapiens, HT-29, read-out: 72-h MTT IC50 HT29, HT29 cell line
Experimental: as §2

Saos-2 = test: 72-h MTT cytotoxicity assay, Saos-2; assay type: cell-based; conditions: Homo sapiens, read-out: 72-h MTT IC50 Saos-2, Saos-2 cell line
Experimental: as §2

[1] = system: transformed human cell lines (A549, HT29, Saos-2); test: 72-h MTT cytotoxicity assay, average of cell lines; assay type: cell-based; conditions: read-out: 72-h MTT IC50 Average, average of A549, HT29, Saos-2
Experimental: as §2

CDK9/cyclin T1 = CDK9/cyclin T1 (Homo sapiens, UniProt P50750); test: Kinase assay, radioactive phosphate incorporation, CDK9/cyclin T1; assay type: biochemical; conditions: 100 μM ATP, 30° C.; read-out: Kinase inhibition IC50 CDK9/cyclin T1
Experimental: as §1

CDK7/cyclin H = CDK7/cyclin H (Homo sapiens, UniProt P50613); test: Kinase assay, radioactive phosphate incorporation, CDK7/cyclin H; assay type: biochemical; conditions: 100 μM ATP, 30° C.; read-out: Kinase inhibition IC50 CDK7/cyclin H
Experimental: as §1

Sequence of CDK1/cyclin B (P06493 whole entry, species assumed): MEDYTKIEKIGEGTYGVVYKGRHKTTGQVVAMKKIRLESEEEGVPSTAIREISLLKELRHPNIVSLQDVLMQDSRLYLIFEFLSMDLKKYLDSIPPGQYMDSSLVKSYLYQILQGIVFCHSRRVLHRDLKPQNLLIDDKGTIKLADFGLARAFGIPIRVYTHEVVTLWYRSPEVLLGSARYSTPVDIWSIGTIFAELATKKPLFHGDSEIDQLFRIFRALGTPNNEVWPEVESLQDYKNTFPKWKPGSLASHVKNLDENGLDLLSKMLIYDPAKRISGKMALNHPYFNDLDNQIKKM
Sequence of CDK1/cyclin B (P14635 whole entry partner, species assumed): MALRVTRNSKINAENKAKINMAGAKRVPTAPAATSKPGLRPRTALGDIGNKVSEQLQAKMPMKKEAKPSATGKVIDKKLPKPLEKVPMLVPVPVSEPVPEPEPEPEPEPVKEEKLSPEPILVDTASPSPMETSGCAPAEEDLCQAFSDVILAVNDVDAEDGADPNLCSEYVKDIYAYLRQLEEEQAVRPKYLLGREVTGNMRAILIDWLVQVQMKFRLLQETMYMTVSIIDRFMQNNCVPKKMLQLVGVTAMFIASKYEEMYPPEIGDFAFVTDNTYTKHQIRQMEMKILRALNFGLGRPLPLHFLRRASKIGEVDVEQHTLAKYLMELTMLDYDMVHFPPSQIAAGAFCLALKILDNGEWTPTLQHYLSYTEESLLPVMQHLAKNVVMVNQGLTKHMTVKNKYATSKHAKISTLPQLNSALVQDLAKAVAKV
Sequence of CDK7/cyclin H (P50613 whole entry, species assumed): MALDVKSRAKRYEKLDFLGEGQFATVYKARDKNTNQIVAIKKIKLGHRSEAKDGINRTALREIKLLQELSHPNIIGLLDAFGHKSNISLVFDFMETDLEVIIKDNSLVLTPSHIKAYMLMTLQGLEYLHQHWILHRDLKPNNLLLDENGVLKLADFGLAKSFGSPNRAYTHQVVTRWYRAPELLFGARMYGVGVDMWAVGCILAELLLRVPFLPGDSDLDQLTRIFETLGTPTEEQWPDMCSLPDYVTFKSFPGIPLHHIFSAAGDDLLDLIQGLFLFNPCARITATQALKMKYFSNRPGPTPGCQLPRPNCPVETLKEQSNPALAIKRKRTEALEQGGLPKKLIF
Sequence of CDK7/cyclin H (P51946 whole entry partner, species assumed): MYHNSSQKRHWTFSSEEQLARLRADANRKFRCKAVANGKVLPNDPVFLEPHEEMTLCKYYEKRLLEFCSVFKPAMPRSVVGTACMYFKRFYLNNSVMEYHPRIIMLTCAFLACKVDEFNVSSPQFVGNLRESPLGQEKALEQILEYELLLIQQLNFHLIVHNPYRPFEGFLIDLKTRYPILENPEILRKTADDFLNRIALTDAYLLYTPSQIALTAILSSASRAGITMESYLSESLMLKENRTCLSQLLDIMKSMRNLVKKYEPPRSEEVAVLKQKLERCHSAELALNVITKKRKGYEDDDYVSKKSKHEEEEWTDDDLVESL
Sequence of CDK4/cyclin D1 (P11802 whole entry, species assumed): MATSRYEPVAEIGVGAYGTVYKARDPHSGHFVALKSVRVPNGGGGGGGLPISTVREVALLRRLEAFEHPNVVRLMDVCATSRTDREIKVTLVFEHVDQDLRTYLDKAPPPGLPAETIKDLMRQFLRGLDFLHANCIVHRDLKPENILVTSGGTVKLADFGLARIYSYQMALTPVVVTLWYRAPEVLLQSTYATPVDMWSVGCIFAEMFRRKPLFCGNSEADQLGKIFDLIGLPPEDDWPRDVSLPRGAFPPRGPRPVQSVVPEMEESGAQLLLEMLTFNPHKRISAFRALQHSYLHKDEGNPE
Sequence of CDK4/cyclin D1 (P24385 whole entry partner, species assumed): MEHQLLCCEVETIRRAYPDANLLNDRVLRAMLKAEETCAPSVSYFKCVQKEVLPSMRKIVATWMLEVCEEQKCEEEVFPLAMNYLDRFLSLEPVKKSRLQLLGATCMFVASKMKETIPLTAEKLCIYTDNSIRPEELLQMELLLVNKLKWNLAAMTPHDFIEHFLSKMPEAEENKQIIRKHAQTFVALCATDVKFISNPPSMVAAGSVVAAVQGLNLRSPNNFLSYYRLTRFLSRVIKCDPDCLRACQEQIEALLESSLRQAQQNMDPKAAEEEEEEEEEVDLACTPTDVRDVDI
Sequence of CDK9/cyclin T1 (P50750 whole entry, species assumed): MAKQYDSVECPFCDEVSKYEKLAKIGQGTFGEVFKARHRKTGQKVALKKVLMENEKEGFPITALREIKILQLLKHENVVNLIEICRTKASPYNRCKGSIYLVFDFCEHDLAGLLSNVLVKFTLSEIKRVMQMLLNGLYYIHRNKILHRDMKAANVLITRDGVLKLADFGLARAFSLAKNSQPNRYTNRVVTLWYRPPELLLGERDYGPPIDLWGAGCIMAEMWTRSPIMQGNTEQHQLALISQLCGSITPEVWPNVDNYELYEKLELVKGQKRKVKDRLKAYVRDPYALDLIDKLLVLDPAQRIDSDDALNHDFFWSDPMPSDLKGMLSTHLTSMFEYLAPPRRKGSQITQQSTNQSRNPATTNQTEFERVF
Sequence of CDK9/cyclin T1 (O60563 whole entry partner, species assumed): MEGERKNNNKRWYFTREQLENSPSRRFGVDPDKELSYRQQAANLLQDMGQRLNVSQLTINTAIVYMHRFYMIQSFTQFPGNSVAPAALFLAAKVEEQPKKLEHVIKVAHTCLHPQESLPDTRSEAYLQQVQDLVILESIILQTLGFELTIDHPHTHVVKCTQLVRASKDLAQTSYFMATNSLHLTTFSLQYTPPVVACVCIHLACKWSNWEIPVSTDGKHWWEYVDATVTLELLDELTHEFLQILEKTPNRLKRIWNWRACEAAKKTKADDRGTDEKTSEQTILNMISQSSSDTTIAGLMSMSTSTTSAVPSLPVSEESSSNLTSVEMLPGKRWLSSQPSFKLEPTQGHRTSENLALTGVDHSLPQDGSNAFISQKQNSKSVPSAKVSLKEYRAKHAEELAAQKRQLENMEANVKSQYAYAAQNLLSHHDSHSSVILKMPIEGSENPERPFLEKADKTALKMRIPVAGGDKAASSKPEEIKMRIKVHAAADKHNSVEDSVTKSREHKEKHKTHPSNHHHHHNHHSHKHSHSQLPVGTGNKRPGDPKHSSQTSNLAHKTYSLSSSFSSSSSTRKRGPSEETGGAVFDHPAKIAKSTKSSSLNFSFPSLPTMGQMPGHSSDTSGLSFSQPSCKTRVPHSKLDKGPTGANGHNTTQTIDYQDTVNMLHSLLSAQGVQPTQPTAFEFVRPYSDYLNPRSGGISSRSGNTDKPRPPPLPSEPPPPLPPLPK
Sequence of GSK3β (P49841 whole entry, species assumed): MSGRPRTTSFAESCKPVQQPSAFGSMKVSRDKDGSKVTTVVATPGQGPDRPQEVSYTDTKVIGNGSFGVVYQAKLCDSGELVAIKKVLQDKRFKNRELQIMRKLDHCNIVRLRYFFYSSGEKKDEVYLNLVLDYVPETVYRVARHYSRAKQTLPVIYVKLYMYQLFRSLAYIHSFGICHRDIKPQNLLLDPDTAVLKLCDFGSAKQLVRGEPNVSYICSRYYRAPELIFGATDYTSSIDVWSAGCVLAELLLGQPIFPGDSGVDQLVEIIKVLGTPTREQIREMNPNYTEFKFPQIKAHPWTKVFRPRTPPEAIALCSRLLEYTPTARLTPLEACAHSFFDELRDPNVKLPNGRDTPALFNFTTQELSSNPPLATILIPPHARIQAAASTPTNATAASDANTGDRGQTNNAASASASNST

Structure (SMILES)	IC50 (CDK1/cyclin B)	IC50 (CDK2/cyclin A)	IC50 (CDK2/cyclin E)	IC50 (CDK4/cyclin D1)	IC50 (GSK3β)	IC50 (CDK9/cyclin T1)	IC50 (CDK7/cyclin H)	IC50 (A549)	IC50 (HT29)	IC50 (Saos-2)	IC50 [1]
Oc1ccc(Nc2nccc(-c3cccc(Cl)c3)n2)cc1 [Compound 17, 4-[4-(3-Chloro-phenyl)-pyrimidin-2-ylamino]-phenol]	5300 nM	2100 nM	390 nM								
Oc1cccc(Nc2nccc(-c3cccc(Cl)c3)n2)c1 [Compound 18, 3-[4-(3-Chloro-phenyl)-pyrimidin-2-ylamino]-phenol]	5500 nM	3100 nM	1100 nM								
Oc1ccc(Nc2nccc(-c3ccc(Cl)c(Cl)c3)n2)cc1 [Compound 21, 4-[4-(3,4-Dichloro-phenyl)-pyrimidin-2-ylamino]-phenol]	29000 nM		3500 nM	29000 nM		5400 nM		11700 nM	15100 nM	41500 nM	22800 ± 16300 nM
CCNc1cccc(-c2ccnc(Nc3ccc(OC)cc3)n2)c1 [Compound 25, [4-(3-Ethylamino-phenyl)-pyrimidin-2-yl]-(4-methoxy-phenyl)-amine]	170 nM	30 nM	39 nM	170 nM	140 nM	5 nM	940 nM				
CCNc1cccc(-c2ccnc(Nc3ccc([N+](=O)[O-])cc3)n2)c1 [Compound 26, [4-(3-Ethylamino-phenyl)-pyrimidin-2-yl]-(4-nitro-phenyl)-amine]	1300 nM	130 nM	33 nM		40 nM	59 nM	20000 nM	1700 nM	1200 nM	1100 nM	1300 ± 300 nM
O=[N+]([O-])c1cccc(Nc2nccc(-c3cccc(Cn4ccnc4)c3)n2)c1 [Compound 29, [4-(3-Imidazol-1-ylmethyl-phenyl)-pyrimidin-2-yl]-(3-nitro-phenyl)-amine]	2200 nM	5100 nM	140 nM	62000 nM	50 nM	44 nM	71 nM	3600 nM	1800 nM	4500 nM	3300 ± 1400 nM
O=[N+]([O-])c1cccc(Nc2nccc(-c3cccc(CN4CCOCC4)c3)n2)c1 [Compound 39, [4-(3-Morpholin-4-ylmethyl-phenyl)-pyrimidin-2-yl]-(3-nitro-phenyl)-amine]	350 nM	2400 nM	120 nM	2410 nM	150 nM	110 nM	38 nM	6800 nM	2000 nM	8000 nM	5600 ± 3200 nM
COc1ccc(Nc2nccc(-c3cccc(Cn4cncn4)c3)n2)cc1 [Compound 42, (4-Methoxy-phenyl)-[4-(3-[1,2,4]triazol-1-ylmethyl-phenyl)-pyrimidin-2-yl]-amine]	11000 nM		3200 nM	2000 nM	87 nM	220 nM	1100 nM	10600 nM	6700 nM	25800 nM	14400 ± 10100 nM
Clc1ccc(Nc2nccc(-c3cccc(CNCc4ccccc4)c3)n2)cn1 [Compound 48, {4-[3-(Benzylamino-methyl)-phenyl]-pyrimidin-2-yl}-(6-chloro-pyridin-3-yl)-amine]		9800 nM	1300 nM	3500 nM	320 nM	1200 nM	1700 nM	13400 nM	5100 nM	20400 nM	13000 ± 7700 nM
COc1ccc(Nc2nccc(-c3cccc(Cn4ccnc4)c3)n2)cn1 [Compound 59, [4-(3-Imidazol-1-ylmethyl-phenyl)-pyrimidin-2-yl]-(6-methoxy-pyridin-3-yl)-amine]	120 nM	60 nM	1300 nM	3800 nM	70 nM	40 nM	500 nM				
CN(C)Cc1cccc(-c2ccnc(Nc3cccc([N+](=O)[O-])c3)n2)c1 [Compound 71, [4-(3-Dimethylaminomethyl-phenyl)-pyrimidin-2-yl]-(3-nitro-phenyl)-amine]	10 nM	30 nM	10 nM	200 nM	30 nM	3 nM	30 nM				

Continued, in another order:

IC50 (CDK1/cyclin B)	IC50 (CDK2/cyclin A)	IC50 (CDK2/cyclin E)	IC50 (CDK4/cyclin D1)	IC50 (GSK3β)	IC50 (CDK9/cyclin T1)	IC50 (CDK7/cyclin H)	Structure (SMILES)	IC50 (A549)	IC50 (HT29)	IC50 (Saos-2)	IC50 [1]
3900 nM		6100 nM	20000 nM	1100 nM			CN(C)c1ccc(Nc2nccc(-c3ccc(Cl)c(Cl)c3)n2)cc1 [Compound 20, N-[4-(3,4-Dichloro-phenyl)-pyrimidin-2-yl]-N′,N′-dimethyl-benzene-1,4-diamine]	35500 nM	35800 nM	24700 nM	32000 ± 6300 nM
3600 nM	1200 nM	1100 nM	7600 nM	120 nM	400 nM	4300 nM	CCN(C(C)=O)c1cccc(-c2ccnc(Nc3ccc(OC)cc3)n2)c1 [Compound 23, N-Ethyl-N-{3-[2-(4-methoxy-phenylamino)-pyrimidin-4-yl]-phenyl}-acetamide]	12900 nM	3400 nM	23000 nM	13100 ± 9800 nM
2100 nM	1000 nM	860 nM	2600 nM	120 nM	35 nM	2600 nM	Oc1cccc(Nc2nccc(-c3cccc(CNCc4ccccc4)c3)n2)c1 [Compound 28, 3-{4-[3-(Benzylamino-methyl)-phenyl]-pyrimidin-2-ylamino}-phenol]	8000 nM	16000 nM	7100 nM	10400 ± 4900 nM
7000 nM	2400 nM	240 nM	1800 nM	41 nM	130 nM	1200 nM	Oc1cccc(Nc2nccc(-c3cccc(Cn4cncn4)c3)n2)c1 [Compound 34, 3-[4-(3-[1,2,4]triazol-1-ylmethyl-phenyl)-pyrimidin-2-ylamino]-phenol]	4100 nM	8300 nM	3700 nM	5400 ± 2500 nM
270 nM		420 nM		5 nM	1600 nM	880 nM	CS(=O)(=O)NCc1cccc(-c2ccnc(Nc3cccc([N+](=O)[O-])c3)n2)c1 [Compound 40, N-{3-[2-(3-Nitro-phenylamino)-pyrimidin-4-yl]-benzyl}-methanesulfonamide]	1600 nM	1200 nM	4300 nM	2400 ± 1700 nM
1100 nM	440 nM	60 nM	1700 nM	20 nM	< 1 nM	30 nM	Cc1ccc(Nc2nccc(-c3cccc(CN4CCCCC4CO)c3)n2)cc1[N+](=O)[O-] (stereo not drawn) [Compound 108, (1-{3-[2-(4-Methyl-3-nitro-phenylamino)-pyrimidin-4-yl]-benzyl}-piperidin-2-yl)-methanol]				
